Assay results reported in patent US20120022099A1, “NOVEL POLYMORPHIC FORMS OF AN AZABICYCLO-TRIFLUOROMETHYL BENZAMIDE DERIVATIVE” (SANOFI, priority 2008, published 2012).

What was measured:
[1] = test system: hippocampal dentate gyrus; conditions: induced by high-frequency electrical stimulation of the afferent perforant pathway; cited from earlier work
DBA/2J mice = conditions: strain with low basal pre-pulse inhibition; cited from earlier work
GLYT-1 = target: T1, GLYT-1 (Homo sapiens, UniProt P48067); conditions: in vitro; cited from earlier work
T1 sequence (P48067 1-706): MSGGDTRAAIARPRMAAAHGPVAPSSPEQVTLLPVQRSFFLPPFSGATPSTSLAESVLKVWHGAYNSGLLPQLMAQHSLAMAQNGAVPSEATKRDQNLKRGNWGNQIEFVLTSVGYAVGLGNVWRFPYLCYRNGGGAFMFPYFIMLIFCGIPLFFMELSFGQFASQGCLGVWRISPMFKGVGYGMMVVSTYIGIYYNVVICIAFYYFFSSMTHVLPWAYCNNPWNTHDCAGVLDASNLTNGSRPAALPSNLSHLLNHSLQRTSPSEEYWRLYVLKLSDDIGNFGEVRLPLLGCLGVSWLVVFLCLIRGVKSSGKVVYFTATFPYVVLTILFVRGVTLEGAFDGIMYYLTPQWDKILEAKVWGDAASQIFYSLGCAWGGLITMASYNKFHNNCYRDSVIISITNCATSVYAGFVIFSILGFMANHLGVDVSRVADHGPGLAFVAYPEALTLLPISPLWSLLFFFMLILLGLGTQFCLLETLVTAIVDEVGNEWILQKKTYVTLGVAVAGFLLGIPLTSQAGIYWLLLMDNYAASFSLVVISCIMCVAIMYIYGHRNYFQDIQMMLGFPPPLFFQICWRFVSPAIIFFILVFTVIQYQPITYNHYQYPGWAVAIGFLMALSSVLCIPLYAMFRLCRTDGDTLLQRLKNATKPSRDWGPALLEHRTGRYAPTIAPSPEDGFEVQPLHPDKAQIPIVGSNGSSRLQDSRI

NMDA receptor = conditions: cited from earlier work
c-Fos immunoreactivity = conditions: in vivo; cited from earlier work
[2] = Stability of the solid form, conversion between polymorphs; assay type: physicochemical; conditions: for stability of the polymorphic form: hydrochloride
[3] = Thermal decomposition on drying by heating; assay type: physicochemical; conditions: drying through heating to release residual solvents

For `CN(CCC(Oc1ccc(-c2ccccc2)cc1)c1ccc(F)cc1)CC(=O)O` (racemic) [(+/−)-NFPS, N-[3-(4′-fluorophenyl)-3-(4′-phenylphenoxy)propyl]sarcosine], the long-term potentiation [1] is listed as “significantly enhanced”.

In the case of `CN(CCC(Oc1ccc(-c2ccccc2)cc1)c1ccc(F)cc1)CC(=O)O` (single isomer, unassigned; (+)) [(+)-NFPS, (+)N-[3-(4′-fluorophenyl)-3-(4′-phenylphenoxy)-propyl]sarcosine], the “pre-pulse inhibition of the acoustic startle response” value (DBA/2J mice) is listed as “enhanced”, the “activity relative to the racemic compound” value (GLYT-1) is listed as “greater than 10 fold” and the “NMDA-induced [3H]GABA release” value (NMDA receptor) is listed as “significantly stimulated”. For the same compound, the “pattern of c-Fos immunoreactivity” value (c-Fos immunoreactivity) was “comparable with the atypical anti-psychotic clozapine”.

With `Cl.O=C(N[C@@H](c1ccccc1)[C@@H]1CC2CCN1CC2)c1c(Cl)ccc(C(F)(F)F)c1Cl` [Form A, N—[(S)-2(S)-1-azabicyclo[2.2.2]oct-2-yl(phenyl)methyl]-2,6-dichloro-3-(trifluoromethyl)benzamide hydrochloride] the “stability of the polymorphic form” value ([2]; listed as polymorph A) was “highly stable” and the “temperature above which thermal decomposition of the compound occurs” value [3] was “above 220 °C”.

For `Cl.O=C(N[C@@H](c1ccccc1)[C@@H]1CC2CCN1CC2)c1c(Cl)ccc(C(F)(F)F)c1Cl` [Form B, N—[(S)-2(S)-1-azabicyclo[2.2.2]oct-2-yl(phenyl)methyl]-2,6-dichloro-3-(trifluoromethyl)benzamide hydrochloride], the “conversion to polymorph A” value ([2]; aqueous system) was “readily converts to the desired polymorph A”, the “stability of the polymorphic form” value [2] was “lower stability than Form A” and the solubility (Solubility in water) was > 200 mg/mL. For the same compound, the “solubility in water” value (Solubility in water; 45° C.) was “highly soluble in water”.
